Results published in BindingDB's records for doi:10.1016/j.bmcl.2011.06.070 (Novartis Institutes For Biomedical Research, 2011).

Assay: Antagonist activity at CXCR3 in rat leukocytes assessed as inhibition of ITAC-induced cell migration by flow cytometry

SMILES | IC50 [nM]
O=C([C@@H]1C=C2c3cccc4[nH]cc(c34)C[C@H]2N(C(=O)Nc2ccccc2)C1)N1CCCCC1 | 13
O=C([C@@H]1C=C2c3cccc4[nH]cc(c34)C[C@H]2N(C(=O)Nc2ccccc2)C1)N1CCOCC1 | 78
CCN(CC)C(=O)[C@@H]1C=C2c3cccc4[nH]cc(c34)C[C@H]2N(C(=O)Nc2ccccc2)C1 [(6aR,9R)-N9,N9-diethyl-N7-phenyl-6,6a,8,9-tetrahydroindolo[4,3-fg]quinoline-7,9(4H)-dicarboxamide] | 74
O=C([C@@H]1C=C2c3cccc4[nH]cc(c34)C[C@H]2N(C(=O)Nc2ccccc2)C1)N1CCCC1 | 19
